Drawing on ChEMBL document CHEMBL4765351, “Photoeradication of bacteria with porphycenes: Substituent effects on the efficiency” (Eur J Med Chem, 2020), this text covers Activity for five molecules.

Data set [1] is described as follows: Induction of singlet oxygen generation in toluene solution assessed as singlet oxygen quantum yield irradiated with 369 nanometer LED light at 300 mW by spectrometric method. The class given is functional.
Data set [2] can be described thus: Induction of singlet oxygen generation in pluronic solution in deuterated water assessed as singlet oxygen quantum yield irradiated with 635 nanometer LED light at 300 mW by spectrometric method. The class given is functional.
The nature of data set [3]: Induction of hydroxy radical generation in pluronic solution irradiated with 635 nanometer LED light at 6 mW by HPF fluorescence method.
Data set [4] can be described thus: Induction of […] generation in pluronic solution irradiated with 369 nanometer LED light at 6 mW by HPF fluorescence method.
Data set [5] has as its system Enterococcus faecalis. Kind of data set: Photodynamic antibacterial activity against Enterococcus faecalis 29212 assessed as bacterial eradication at 7 uM preincubated for 30 mins in dark condition followed by 0.6 J/cm2.min LED light irradiation for 50 mins. The conditions noted are these: time 80 min, 1.333 h. The format is functional, ATCC 29212.
Data set [6] concerns Enterococcus faecalis. Kind of data set: Photodynamic antibacterial activity against Enterococcus faecalis 29212 assessed as bacterial eradication at 7 uM preincubated for 30 mins in dark condition followed by 30 J/cm2 LED light irradiation. The conditions noted are these: 0.5 h. The format is functional, ATCC 29212.
The test system of another data set is HeLa. Kind of data set: Photodynamic anticancer activity against human HeLa cells. The class given is functional, cell-based.
Data set [7] is described as follows: Absorption property in pluronic/PBS solution assessed as diode array corresponding wavelength of photodynamic inactivation by measuring electronic absorption spectra by spectrophotometry. The class given is physicochemical. The conditions noted are these: buffer.
In data set [8] the test system is Enterococcus faecalis. As to the kind of experiment: Photodynamic antibacterial activity against Enterococcus faecalis 29212 assessed as bacterial eradication by measuring log reduction at 7 uM preincubated for 30 mins in dark condition followed by 0.6 J/cm2.min LED light irradiation for 120 mins. The class given is functional, ATCC 29212.
Data set [9] relates to Enterococcus faecalis. As to the kind of experiment: Photodynamic antibacterial activity against Enterococcus faecalis 29212 assessed as bacterial eradication at 7 uM preincubated for 30 mins in dark condition followed by 72 J/cm2 LED light irradiation. The format is functional, ATCC 29212.

Active and inactive are the calls of the source. The rule behind the calls is not given here.

As to `C1=Cc2nc1ccc1ccc([nH]1)c1nc(ccc3ccc2[nH]3)C=C1`, the Activity in data set [1] was 0.3; in [2] it was 0.28; in the data set on Enterococcus faecalis [5] it was 100%; in the data set with Enterococcus faecalis [6], 100%; in [7], “Active”. Further, the outcome (in data set [3]; in [4]; in the data set on HeLa) was Active.
On to `COCCC1=Cc2nc1ccc1[nH]c(cc1CCOC)c1nc(ccc3[nH]c2cc3CCOC)C(CCOC)=C1`, for which the Activity in data set [1] was 0.32; in data set [2], 0.23; with Enterococcus faecalis [8] (time 150 min, 2.5 h), 6; in the data set on Enterococcus faecalis [9] (0.5 h), 100%; in data set [7] it was “Active”. Also, the outcome (in data set [3]; in data set [4]; in the data set with HeLa) was Active.
Regarding `CC(C)(C)C1=Cc2nc1ccc1ccc([nH]1)c1nc(ccc3[nH]c2cc3C(C)(C)C)C=C1`, the Activity in data set [1] is 0.36; in data set [2] it was 0.22; in data set [7], “Active”. Moreover, the outcome in data set [3] and in data set [4] was Active. Also, the Activity result in the data set on Enterococcus faecalis [8] (ATCC 29212, time 150.0 min) was “inactive”; in the data set with Enterococcus faecalis [9] (ATCC 29212), “inactive”.
Consider `CC(C)(C)C1=Cc2nc1ccc1[nH]c(cc1C(C)(C)C)c1nc(ccc3[nH]c2cc3C(C)(C)C)C(C(C)(C)C)=C1`, for which the Activity in data set [1] is 0.38; in [2], 0.21; in [7], “Active”. Also, the result in data set [3] and in data set [4] was Active. The Activity result was “inactive” in the data set on Enterococcus faecalis [8] (ATCC 29212, time 150.0 min); “inactive” in the data set with Enterococcus faecalis [9] (ATCC 29212); “inactive” with HeLa.
Take `CC(C)(C)c1cc2[nH]c1ccc1nc(c3ccc(ccc4nc2C=C4)[nH]3)C=C1`: the Activity is 0.32 in data set [1]; 0.23 in data set [2]; 3 in the data set on Enterococcus faecalis [8] (time 150 min, 2.5 h); “Active” in [7]. Also, the outcome in data set [3] and in data set [4] was Active. Further, the result in the data set on Enterococcus faecalis [9] (ATCC 29212) was inactive.
